Laboratory results from patent US9630977B2, “Cephalosporin derivatives and pharmaceutical compositions thereof” (Legochem Biosciences, Inc., priority 2011, dated 2017).
Values after ≈ are worked out from the molar mass of the structure shown. Where two headings read alike, the source gives them in different places.

Columns and labels:
Format in all cases: cell-based
A. baumannii 46 = assay: In vitro antibacterial activity test (broth microdilution); details: A. baumannii 46
How it was run: (§1)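 Values: MIC90, ug/mL. Method: CLSI broth microdilution on clinical isolates, compounds at final 0.0626 to 128 ug/mL.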

A. baumannii 49 = assay: as above; details: A. baumannii 49
How it was run: as §1

A. baumannii 52 = assay: as above; details: A. baumannii 52
How it was run: as §1

[1] = tested on: A. calcoaceticus ATCC15473; assay: as above; details: A. calcoaceticus ATCC15473
How it was run: as §1

E. cloacae β19 = assay: as above
How it was run: as §1

E. coli AG100 = assay: as above
How it was run: as §1

E. coli β4 = assay: as above
How it was run: as §1

K. pneumoniae 2011E = assay: as above; details: K. pneumoniae 2011E
How it was run: as §1

K. pneumoniae β10 = assay: as above; details: K. pneumoniae β10
How it was run: as §1

K. pneumoniae β11 = assay: as above; details: K. pneumoniae β11
How it was run: as §1

K. pneumoniae β13 = assay: as above; details: K. pneumoniae β13
How it was run: as §1

K. pneumoniae β14 = assay: as above
How it was run: as §1

K. pneumoniae β9 = assay: as above; details: K. pneumoniae β9
How it was run: as §1

M. catarrhalis 2524 = assay: as above; details: M. catarrhalis 2524
How it was run: as §1

P. aeruginosa 1912E = assay: as above
How it was run: as §1

P. aeruginosa 37 = assay: as above
How it was run: as §1

P. aeruginosa 40 = assay: as above
How it was run: as §1

P. aeruginosa 43 = assay: as above; details: P. aeruginosa 43
How it was run: as §1

P. aeruginosa 6065Y = assay: as above
How it was run: as §1

[2] = tested on: A. baumannii (6 clinical isolates); assay: Antibacterial activity on representative drug-resistance bacteria: number of clinical isolates per MIC value; details: A. baumanni (N = 6)
Protocol: (§2) The in vitro antibacterial activity was evaluated by measuring MIC90 (ug/mL) of each of the compounds of Examples 1 to 68, which is defined as the lowest concentration of an antibiotic that will inhibit the visible growth of 90% of microorganisms after incubation as compared with a control group to which the antibiotic is not treated. MIC90 values were measured by the broth microdilution method developed by the Clinical and Laboratory Standards Institute (CLSI) (see CLSI M7-A5, Methods for Dilution Antimicrobial Susceptibility Test for Bacteria that Grow Aerobically-Fifth Edition (2000): CLSI, Villanova, Pa.).
(§3) Test compounds each (the cephalosporin derivative compounds prepared in Examples 1 to 68) were dissolved in DMSO at the concentration of 10,240 ug/mL, were diluted by two fold with DMSO, and then were diluted by twenty fold with sterilized distilled water. The final concentration in the antibacterial activity test was in the range of […] to 128 ug/mL, and the final concentration of DMSO used as an adjuvant was 2.5% (V/V).

[3] = tested on: K. pneumoniae (38 clinical isolates); assay: as above; details: K. pneumomiae (N = 38)
Protocol: as §2, §3

[4] = tested on: P. aeruginosa (16 clinical isolates); assay: as above; details: P. aeruginosa (N = 16)
Protocol: as §2, §3

19 clinical isolates = assay: In vitro antibacterial activity test, panel of 19 clinical isolates as a whole; details: effect of a siderophore group, Table 1
Protocol: To evaluate antibacterial activity of each of the compounds of Examples 1 to 68, in vitro antibacterial activity test was performed.
as §2
In vitro antibacterial activity was measured with respect to the following 19 clinical isolates: M. catarrhalis; P. aeruginosa (5 strains); K. pneumoniae (6 strains); A. baumannii (3 strains); E. coli (2 strains); A. calcoaceticus; and E. cloacae.
as §3

[5] = Acinetobacter baumannii, read-out: MIC90
[6] = Klebsiella pneumoniae, read-out: MIC90
[7] = Pseudomonas aeruginosa, read-out: MIC90

## CC(C)(O/N=C(\C(=O)N[C@@H]1C(=O)N2C(C(=O)[O-])=C(/C=C/C[n+]3cnc(N)c(NCCNC(=O)c4cc(=O)c(O)cn4O)c3)CSC12)c1csc(N)n1)C(=O)O (stereo partly shown) [Compound 11]
A. baumannii 46
  MIC90: 4 µg/mL (≈ 5 µM)
A. baumannii 49
  MIC90: >128 µg/mL
A. baumannii 52
  MIC90: >128 µg/mL
[1]
  MIC90: 1 µg/mL (≈ 1.25 µM)
E. cloacae β19
  MIC90: 64 µg/mL (≈ 80 µM)
E. coli AG100; E. coli AG100
  MIC90: 0.125 µg/mL (≈ 0.156 µM)
E. coli β4
  MIC90: 0.125 µg/mL (≈ 0.156 µM)
K. pneumoniae 2011E
  MIC90: 0.5 µg/mL (≈ 0.625 µM)
K. pneumoniae β10
  MIC90: <0.0625 µg/mL
K. pneumoniae β11
  MIC90: >128 µg/mL
K. pneumoniae β13
  MIC90: <0.0625 µg/mL
K. pneumoniae β14
  MIC90: 8 µg/mL (≈ 10 µM)
K. pneumoniae β9
  MIC90: <0.0625 µg/mL
M. catarrhalis 2524
  MIC90: 0.25 µg/mL (≈ 0.313 µM)
P. aeruginosa 1912E
  MIC90: 1 µg/mL (≈ 1.25 µM)
P. aeruginosa 37; P. aeruginosa 37
  MIC90: 1 µg/mL (≈ 1.25 µM)
P. aeruginosa 40; P. aeruginosa 40
  MIC90: 0.5 µg/mL (≈ 0.625 µM)
P. aeruginosa 43
  MIC90: 1 µg/mL (≈ 1.25 µM)
P. aeruginosa 6065Y
  MIC90: 4 µg/mL (≈ 5 µM)
[2]; MIC 2 ug/mL
  number of clinical isolates that showed the respective MIC value: 1
[2]; MIC >16 ug/mL
  number of clinical isolates that showed the respective MIC value: 5
[3]; MIC 0.5 ug/mL
  number of clinical isolates that showed the respective MIC value: 1
[3]; MIC 2 ug/mL
  number of clinical isolates that showed the respective MIC value: 1
[3]; MIC 8 ug/mL
  number of clinical isolates that showed the respective MIC value: 1
[3]; MIC >16 ug/mL
  number of clinical isolates that showed the respective MIC value: 35
[4]; MIC 0.125 ug/mL
  number of clinical isolates that showed the respective MIC value: 1
[4]; MIC 0.5 ug/mL
  number of clinical isolates that showed the respective MIC value: 3
[4]; MIC 1 ug/mL
  number of clinical isolates that showed the respective MIC value: 2
[4]; MIC 2 ug/mL
  number of clinical isolates that showed the respective MIC value: 2
[4]; MIC 4 ug/mL
  number of clinical isolates that showed the respective MIC value: 3
[4]; MIC 8 ug/mL
  number of clinical isolates that showed the respective MIC value: 2
[4]; MIC 16 ug/mL
  number of clinical isolates that showed the respective MIC value: 1
[4]; MIC >16 ug/mL
  number of clinical isolates that showed the respective MIC value: 2
19 clinical isolates
  antibacterial activity (in words): significantly improved

## CC(C)(O/N=C(\C(=O)N[C@@H]1C(=O)N2C(C(=O)[O-])=C(/C=C/C[n+]3cnc(N)c(NCCNC(=O)c4cc(=O)c(O)cn4O)c3)CSC12)c1nc(N)sc1Cl)C(=O)O (stereo partly shown) [Compound 26]
A. baumannii 46; [5]
  MIC90: 2 µg/mL (≈ 2.4 µM)
A. baumannii 49; [5]
  MIC90: 16 µg/mL (≈ 19.2 µM)
A. baumannii 52; [5]
  MIC90: 2 µg/mL (≈ 2.4 µM)
[1]; Acinetobacter calcoaceticus, read-out: MIC90
  MIC90: 0.5 µg/mL (≈ 0.599 µM)
E. cloacae β19; Enterobacter cloacae, read-out: MIC90
  MIC90: 0.125 µg/mL (≈ 0.15 µM)
E. coli AG100; Escherichia coli, AG100, E. coli AG100, read-out: MIC90
  MIC90: < 0.0625 µg/mL
E. coli β4; Escherichia coli, read-out: MIC90
  MIC90: < 0.0625 µg/mL
K. pneumoniae 2011E; Klebsiella pneumoniae, 2011E, read-out: MIC90
  MIC90: 0.5 µg/mL (≈ 0.599 µM)
K. pneumoniae β10; [6]
  MIC90: < 0.0625 µg/mL
K. pneumoniae β11; [6]
  MIC90: 0.5 µg/mL (≈ 0.599 µM)
K. pneumoniae β13; [6]
  MIC90: < 0.0625 µg/mL
K. pneumoniae β14; [6]
  MIC90: 4 µg/mL (≈ 4.79 µM)
K. pneumoniae β9; [6]
  MIC90: 0.125 µg/mL (≈ 0.15 µM)
M. catarrhalis 2524; Moraxella catarrhalis, read-out: MIC90
  MIC90: < 0.0625 µg/mL
P. aeruginosa 1912E; Pseudomonas aeruginosa, 1912E, read-out: MIC90
  MIC90: 0.25 µg/mL (≈ 0.3 µM)
P. aeruginosa 37; Pseudomonas aeruginosa, 37, P. aeruginosa 37, read-out: MIC90
  MIC90: < 0.0625 µg/mL
P. aeruginosa 40; Pseudomonas aeruginosa, 40, P. aeruginosa 40, read-out: MIC90
  MIC90: < 0.0625 µg/mL
P. aeruginosa 43; [7]
  MIC90: 0.25 µg/mL (≈ 0.3 µM)
P. aeruginosa 6065Y; [7]
  MIC90: 0.5 µg/mL (≈ 0.599 µM)
[2]; MIC 0.5 ug/mL
  number of clinical isolates that showed the respective MIC value: 1
[2]; MIC 8 ug/mL
  number of clinical isolates that showed the respective MIC value: 2
[2]; MIC >16 ug/mL
  number of clinical isolates that showed the respective MIC value: 3
[3]; MIC 0.25 ug/mL
  number of clinical isolates that showed the respective MIC value: 1
[3]; MIC 0.5 ug/mL
  number of clinical isolates that showed the respective MIC value: 2
[3]; MIC 1 ug/mL
  number of clinical isolates that showed the respective MIC value: 3
[3]; MIC 2 ug/mL
  number of clinical isolates that showed the respective MIC value: 1
[3]; MIC 8 ug/mL
  number of clinical isolates that showed the respective MIC value: 4
[3]; MIC 16 ug/mL
  number of clinical isolates that showed the respective MIC value: 4
[3]; MIC <0.0625 ug/mL
  number of clinical isolates that showed the respective MIC value: 1
[3]; MIC >16 ug/mL
  number of clinical isolates that showed the respective MIC value: 22
[4]; MIC 0.0625 ug/mL
  number of clinical isolates that showed the respective MIC value: 1
[4]; MIC 0.25 ug/mL
  number of clinical isolates that showed the respective MIC value: 2
[4]; MIC 0.5 ug/mL
  number of clinical isolates that showed the respective MIC value: 3
[4]; MIC 1 ug/mL
  number of clinical isolates that showed the respective MIC value: 1
[4]; MIC 2 ug/mL
  number of clinical isolates that showed the respective MIC value: 2
[4]; MIC 4 ug/mL
  number of clinical isolates that showed the respective MIC value: 3
[4]; MIC 8 ug/mL
  number of clinical isolates that showed the respective MIC value: 1
[4]; MIC >16 ug/mL
  number of clinical isolates that showed the respective MIC value: 3
19 clinical isolates
  antibacterial activity (in words): significantly improved
